Data taken from patent US7459481B2, “Stimulation of CPT-1 as a means to reduce weight” (The Johns Hopkins University School of Medicine Licensing …, priority 2002, dated 2008).
Values joined by “and” are separate entries in the source; they are usually repeats but may differ in a detail not shown here. Identical values can stand only once.

How the values were obtained:
[1] = biological target: FAS (Homo sapiens, UniProt P49327); assay: FAS activity, malonyl-CoA dependent oxidation of NADPH at OD340; type: biochemical; settings: read-out: FAS Inhibition (IC50) (converted)
Procedure: (§1) FAS activity was measured by monitoring the malonyl-CoA dependent oxidation of NADPH spectrophotometrically at OD340 in 96-well plates, as described in International Patent Publication WO 2004/005277. The IC50 for the compounds against FAS was determined by plotting the change in OD340 against time for each inhibitor concentration tested and determining the rate of change by linear regression. The concentration of a particular compound yielding 50% inhibition of the rate for FAS in the absence of the compound is the IC50. Stimulation of CPT-1 activity was measured as described in Example 2, except the cells were preincubated with the compound for 2 hours at the concentrations indicated in the table. Stimulation of Fatty acid oxidation was determined as described in Example 1 for cells preincubated with the compounds at the concentrations indicated in the table.

[2] = system: MCF-7 cells; assay: Fatty acid oxidation ([1-14C]palmitate to 14CO2) in MCF-7 cells; type: cell-based, human
Procedure: Human breast cancer cell line MCF-7 was obtained from the American Type Culture Collection. 1×10^6 MCF-7 cells were plated in T-25 flasks in triplicate and incubated overnight at 37° C. Drugs were then added as indicated diluted from 5 mg/ml stock in DMSO. After 2 hours, medium with drugs was removed and cells were preincubated for 30 min. with 1.5 ml of the following buffer: 114 mM NaCl, 4.7 mM KCl, 1.2 mM KH2PO4, 1.2 mM MgSO4, glucose 11 mM. After preincubation, 200 μl of assay buffer was added containing: 114 mM NaCl, 4.7 mM KCl, 1.2 mM KH2PO4, 1.2 mM MgSO4, glucose 11 mM, 2.5 mM palmitate (containing with 10 μCi of [1-^14C]palmitate) bound to albumin, 0.8 mM L-carnitine, and cells were incubated at 37° C. for 2 h. Following the incubation, 400 μl of benzethonium hydrochloride was added to the center well to collect released ^14CO2. Immediately, the reaction was stopped by adding 500 μl of 7% perchloric acid to the cells. The flasks with wells were then incubated for 2 h at 37° C. after which the benzothonium hydrochloride was removed and counted for ^14C. Blanks were prepared by adding 500 μl of 7% perchloric acid to the cells prior to the incubation with the assay buffer for 2 h.
as §1

[3] = biological target: T1, CPT-1 (Homo sapiens, UniProt P50416); assay: CPT-1 activity assay in MCF-7 cells; type: cell-based; settings: for CPT-1 Stimulation (% Control): cells preincubated 2 hours; for CPT-1 activity, % of control: FIG. 4
T1 construct: endogenous in cells; host or cells: MCF-7 human breast cancer cells
T1 sequence (P50416 1-773): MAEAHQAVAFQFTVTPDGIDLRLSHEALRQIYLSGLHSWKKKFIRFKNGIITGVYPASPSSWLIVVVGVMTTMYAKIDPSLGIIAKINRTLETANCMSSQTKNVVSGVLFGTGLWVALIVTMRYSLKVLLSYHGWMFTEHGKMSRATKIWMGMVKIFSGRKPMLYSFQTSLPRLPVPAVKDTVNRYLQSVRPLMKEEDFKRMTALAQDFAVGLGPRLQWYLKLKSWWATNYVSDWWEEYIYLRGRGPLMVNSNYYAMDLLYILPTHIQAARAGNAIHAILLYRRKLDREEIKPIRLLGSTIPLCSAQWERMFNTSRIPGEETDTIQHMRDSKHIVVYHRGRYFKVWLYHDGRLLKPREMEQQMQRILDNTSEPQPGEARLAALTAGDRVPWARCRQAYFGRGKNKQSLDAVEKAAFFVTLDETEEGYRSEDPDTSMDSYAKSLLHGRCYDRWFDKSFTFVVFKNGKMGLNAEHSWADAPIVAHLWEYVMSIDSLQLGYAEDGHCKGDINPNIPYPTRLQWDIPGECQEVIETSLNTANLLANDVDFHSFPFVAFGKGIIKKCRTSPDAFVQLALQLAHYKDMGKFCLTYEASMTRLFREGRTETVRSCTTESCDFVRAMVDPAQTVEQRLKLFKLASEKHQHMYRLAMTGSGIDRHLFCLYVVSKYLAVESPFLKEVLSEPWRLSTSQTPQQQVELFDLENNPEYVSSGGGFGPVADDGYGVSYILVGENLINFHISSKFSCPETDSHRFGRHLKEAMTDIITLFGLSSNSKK
Procedure: CPT-1 activity was assayed in MCF-7 cells by the following published procedure: MCF-7 cells were plated in DMEM with 10% fetal bovine serum at 10^6 cells in 24-well plates in triplicate. Following overnight incubation at 37° C., the medium was removed and replaced with 700 μl of assay medium consisting of: 50 mM imidazole, 70 mM KCl, 80 mM sucrose, 1 mM EGTA, 2 mM MgCl2, 1 mM DTT, 1 mM KCN, 1 mM ATP, 0.1% fatty acid free bovine serum albumin, 70 μM palmitoyl-CoA, 0.25 μCi [methyl-^14C]L-carnitine, 40 μg digitonin with or without 20 μM malonyl-CoA. After incubation for 6 minutes at 37° C., the reaction was stopped by the addition of 500 μl of ice-cold 4 M perchloric acid. Cells were then harvested and centrifuged at 13,000×g for 5 min. The pellet was washed with 500 μl ice cold 2 mM perchloric acid and centrifuged again. The resulting pellet was resuspended in 800 μl dH2O and extracted with 150 μl of butanol. The butanol phase was counted by liquid scintillation and represents the acylcarnitine derivative.
MCF-7 cells were treated with C75 at 10 or 20 μg/mL for 1 hr before CPT-1 activity was assayed. The assay was performed with the C75 and malonyl-CoA concentrations indicated (“M” indicates malonyl-CoA at 20 uM). Malonyl-CoA treatment alone caused a 46% reduction in CPT-1 activity similar to the previous experiment (see FIG. 2; p=0.02, two-tailed t-test, Prism 3.0). The level of malonyl-CoA inhibition of the CPT-1 activity is consistent with the activity of the liver isoform of CPT-1 in MCF-7 cells. The Ki of malonyl-CoA for the liver isoform of CPT-1 is ˜7 μM while the Ki for the muscle isoform of CPT-1 is 0.07 μM. Thus, MCF-7 cells express predominantly the liver isoform of CPT-1 (consistent with the immunoblot analysis).
as §1

[4] = system: MCF-7 cells; settings: literature; cited from earlier work
[5] = system: MCF-7 cells; settings: cited from earlier work
[6] = biological target: T2, liver isoform of CPT-1 (Homo sapiens, UniProt P50416); settings: cited from earlier work
T2 sequence (P50416 1-773): T1 sequence (P50416 1-773)

[7] = biological target: T3, muscle isoform of CPT-1 (Homo sapiens, UniProt Q92523); settings: cited from earlier work
T3 sequence (Q92523 1-772): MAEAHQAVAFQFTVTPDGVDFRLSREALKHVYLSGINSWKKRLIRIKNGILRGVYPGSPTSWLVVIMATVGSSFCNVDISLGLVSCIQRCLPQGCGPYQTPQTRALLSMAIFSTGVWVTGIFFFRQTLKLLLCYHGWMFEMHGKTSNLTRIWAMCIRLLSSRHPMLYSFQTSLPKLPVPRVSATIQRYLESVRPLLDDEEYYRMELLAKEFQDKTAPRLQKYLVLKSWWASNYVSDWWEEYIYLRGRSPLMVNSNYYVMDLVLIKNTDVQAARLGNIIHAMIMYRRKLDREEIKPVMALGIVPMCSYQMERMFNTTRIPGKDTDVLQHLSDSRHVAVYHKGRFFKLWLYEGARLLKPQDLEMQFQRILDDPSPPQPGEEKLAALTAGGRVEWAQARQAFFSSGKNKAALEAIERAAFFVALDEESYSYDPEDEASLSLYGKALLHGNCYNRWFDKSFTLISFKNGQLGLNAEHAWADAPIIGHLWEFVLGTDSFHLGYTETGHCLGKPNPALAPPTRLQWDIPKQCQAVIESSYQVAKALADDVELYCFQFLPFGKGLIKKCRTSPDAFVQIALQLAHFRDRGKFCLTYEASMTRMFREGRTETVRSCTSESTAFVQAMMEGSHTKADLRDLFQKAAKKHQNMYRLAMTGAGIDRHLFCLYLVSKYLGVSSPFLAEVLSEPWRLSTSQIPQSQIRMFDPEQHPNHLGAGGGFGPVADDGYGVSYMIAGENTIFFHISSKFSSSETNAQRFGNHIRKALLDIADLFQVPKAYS

[8] = MCF-7, 20 μg/ml 1 hr before assay

Sequence of FAS (P49327 whole entry): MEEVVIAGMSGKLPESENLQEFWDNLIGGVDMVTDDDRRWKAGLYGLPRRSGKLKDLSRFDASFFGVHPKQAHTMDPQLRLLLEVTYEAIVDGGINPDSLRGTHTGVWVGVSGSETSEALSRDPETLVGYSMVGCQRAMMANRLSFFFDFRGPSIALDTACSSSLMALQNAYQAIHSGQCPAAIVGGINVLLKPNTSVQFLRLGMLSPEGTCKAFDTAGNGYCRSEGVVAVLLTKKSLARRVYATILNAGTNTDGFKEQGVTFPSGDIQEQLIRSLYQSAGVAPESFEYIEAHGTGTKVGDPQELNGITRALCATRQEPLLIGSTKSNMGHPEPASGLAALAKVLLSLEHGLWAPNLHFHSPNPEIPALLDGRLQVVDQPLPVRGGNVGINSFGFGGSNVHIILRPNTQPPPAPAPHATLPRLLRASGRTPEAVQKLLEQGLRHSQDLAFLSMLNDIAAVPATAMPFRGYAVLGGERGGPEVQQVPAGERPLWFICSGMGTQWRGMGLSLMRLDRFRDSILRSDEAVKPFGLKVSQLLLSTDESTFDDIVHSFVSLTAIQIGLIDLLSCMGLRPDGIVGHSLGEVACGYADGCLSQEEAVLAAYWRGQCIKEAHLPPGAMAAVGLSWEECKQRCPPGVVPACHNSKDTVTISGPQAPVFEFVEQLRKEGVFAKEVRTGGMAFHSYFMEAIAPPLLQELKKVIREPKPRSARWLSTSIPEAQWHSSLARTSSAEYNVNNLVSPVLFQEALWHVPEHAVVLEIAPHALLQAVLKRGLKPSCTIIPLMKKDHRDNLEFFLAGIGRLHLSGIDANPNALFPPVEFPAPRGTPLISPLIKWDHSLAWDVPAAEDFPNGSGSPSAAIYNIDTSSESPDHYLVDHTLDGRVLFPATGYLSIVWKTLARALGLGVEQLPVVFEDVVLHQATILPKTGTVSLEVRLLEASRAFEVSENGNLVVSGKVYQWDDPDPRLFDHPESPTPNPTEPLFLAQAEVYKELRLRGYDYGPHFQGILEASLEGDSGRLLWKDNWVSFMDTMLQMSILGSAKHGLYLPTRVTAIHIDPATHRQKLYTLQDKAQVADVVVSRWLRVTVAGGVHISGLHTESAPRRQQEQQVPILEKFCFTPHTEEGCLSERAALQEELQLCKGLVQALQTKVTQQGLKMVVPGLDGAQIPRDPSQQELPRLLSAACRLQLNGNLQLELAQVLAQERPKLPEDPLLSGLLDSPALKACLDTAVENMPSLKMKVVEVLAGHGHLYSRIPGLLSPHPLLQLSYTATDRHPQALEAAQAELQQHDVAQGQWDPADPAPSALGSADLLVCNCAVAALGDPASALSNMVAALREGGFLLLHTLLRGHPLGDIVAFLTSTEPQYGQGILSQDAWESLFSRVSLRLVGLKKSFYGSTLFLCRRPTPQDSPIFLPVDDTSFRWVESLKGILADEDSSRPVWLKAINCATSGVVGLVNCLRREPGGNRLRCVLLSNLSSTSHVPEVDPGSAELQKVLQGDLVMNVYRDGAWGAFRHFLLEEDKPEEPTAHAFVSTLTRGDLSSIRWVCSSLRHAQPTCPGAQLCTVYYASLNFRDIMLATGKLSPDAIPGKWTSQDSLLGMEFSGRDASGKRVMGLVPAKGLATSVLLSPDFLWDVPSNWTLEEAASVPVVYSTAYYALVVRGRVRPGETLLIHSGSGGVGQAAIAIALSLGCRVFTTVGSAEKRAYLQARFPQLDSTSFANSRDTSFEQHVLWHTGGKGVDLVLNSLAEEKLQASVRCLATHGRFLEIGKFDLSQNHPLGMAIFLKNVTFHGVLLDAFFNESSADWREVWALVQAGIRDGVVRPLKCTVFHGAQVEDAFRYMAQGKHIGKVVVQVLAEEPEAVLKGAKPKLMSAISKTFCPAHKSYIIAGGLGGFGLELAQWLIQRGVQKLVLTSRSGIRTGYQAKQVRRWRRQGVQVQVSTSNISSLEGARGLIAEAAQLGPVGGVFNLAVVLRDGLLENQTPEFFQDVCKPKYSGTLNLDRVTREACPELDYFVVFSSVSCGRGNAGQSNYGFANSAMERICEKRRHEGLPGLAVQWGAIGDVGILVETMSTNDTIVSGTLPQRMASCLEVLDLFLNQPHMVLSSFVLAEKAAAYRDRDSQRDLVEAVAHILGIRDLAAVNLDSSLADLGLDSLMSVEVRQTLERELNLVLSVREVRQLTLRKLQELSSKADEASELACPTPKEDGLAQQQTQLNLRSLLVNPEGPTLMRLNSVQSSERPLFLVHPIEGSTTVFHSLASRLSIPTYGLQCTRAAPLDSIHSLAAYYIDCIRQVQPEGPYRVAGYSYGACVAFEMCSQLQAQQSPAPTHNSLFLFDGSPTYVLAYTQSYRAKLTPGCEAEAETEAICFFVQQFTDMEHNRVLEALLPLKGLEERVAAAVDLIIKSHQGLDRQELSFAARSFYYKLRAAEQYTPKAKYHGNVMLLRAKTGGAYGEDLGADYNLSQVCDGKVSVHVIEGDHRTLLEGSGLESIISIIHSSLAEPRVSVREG

## CCCCCCCC[C@]1(C)SC(=O)C=C1OC(=O)OCC (racemic)
[1]
  IC50: 14.6 µM
[2]; 10 μg/mL
  Fatty Acid Oxidation (% Control): 140 % Control
[3]; 20 μg/mL
  CPT-1 Stimulation (% Control): 150 % Control

## C=CCNC(=O)[C@@H]1C(=C)C(=O)O[C@H]1CCCCCCCC (racemic)
[1]
  IC50: 163 µM
[2]; 0.625 μg/mL
  Fatty Acid Oxidation (% Control): 400 % Control
[3]; 10 μg/mL
  CPT-1 Stimulation (% Control): 400 % Control

## C=C1C(=O)O[C@@H](CCCCCCCC)[C@@H]1C(=O)NCC(=O)O (racemic)
[1]
  IC50: 167 µM
[2]; 40 μg/mL
  Fatty Acid Oxidation (% Control): 500 % Control
[3]; 80 μg/mL
  CPT-1 Stimulation (% Control): 500 % Control

## C=CCC1(CC=C)C(=O)S[C@@](C)(CCCCCCCC)C1=O (racemic)
[2]; 10 μg/mL
  Fatty Acid Oxidation (% Control): 175 % Control
[3]; 20 μg/mL
  CPT-1 Stimulation (% Control): 175 % Control

## C/C=C/C/C=C/CCC(=O)[C@H]1O[C@H]1C(N)=O [Cerulenin, reference compound]
[4]
  effect on fatty acid oxidation: inhibition of fatty acid oxidation
[5]
  effect on malonyl-CoA amount: increases

## C=C1C(=O)OC(CCCCCCCCCCCC)C1C(=O)O (centres unmarked) [Compound C12]
[3]; [8]
  CPT-1 activity, % of control: 186 % of control

## C=C1C(=O)OC(CCCCCCCCCCCCCCCC)C1C(=O)O (centres unmarked) [Compound C16]
[3]; [8]
  CPT-1 activity, % of control: 138 % of control

## CCOC(=O)[C@@]1(CCCCCCOc2ccc(Cl)cc2)CO1 [Etomoxir, reference compound]
[2]; MCF-7, FIG. 1
  fatty acid oxidation, % of control: 32 % of control

## CC(C)(COP(=O)(O)OP(=O)(O)OC[C@H]1O[C@@H](n2cnc3c(N)ncnc32)[C@H](O)[C@@H]1OP(=O)(O)O)[C@@H](O)C(=O)NCCC(=O)NCCSC(=O)CC(=O)O [Malonyl-CoA, reference compound]
[6]
  Ki: ~7 µM
[7]
  Ki: 0.07 µM
[3]; MCF-7, 20 μM in reaction buffer
  CPT-1 activity, % of control: 64 % of control
[3]; malonyl-CoA alone at 20 μM in the assay, MCF-7
  reduction (inhibition) of CPT-1 activity: 46% and ~70%
